In PubChem BioAssay (NCI):
“And” between values parts separate entries of the source, which are not always exact repeats. Equal entries are not always repeated.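 Five concentrations, 48 hours, 96-well plates. Abbreviation: GI50, concentration required for 50% inhibition of growth. At the TGI there is no net growth.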

Legend:
Experiment in all cases: NCI tumour cell line growth inhibition, 48 h
CCRF-CEM leukemia = system: CCRF-CEM leukemia
TK-10 renal = system: TK-10 renal
KM12 colon = system: KM12 colon
RPMI-8226 leukemia = system: RPMI-8226 leukemia
MCF7 breast = system: MCF7 breast
DU-145 prostate = system: DU-145 prostate
SW-620 colon = system: SW-620 colon
BT-549 breast = system: BT-549 breast
ACHN renal = system: ACHN renal
SF-295 CNS = system: SF-295 CNS

Row | Structure (SMILES) | TGI (CCRF-CEM leukemia) | TGI (TK-10 renal) | TGI (KM12 colon) | TGI (RPMI-8226 leukemia) | TGI (MCF7 breast) | TGI (DU-145 prostate) | TGI (SW-620 colon) | TGI (BT-549 breast) | TGI (ACHN renal) | TGI (SF-295 CNS) | GI50 (CCRF-CEM leukemia) [µM] | GI50 (TK-10 renal) [µM] | GI50 (KM12 colon) [µM] | GI50 (RPMI-8226 leukemia) [µM] | GI50 (MCF7 breast) [µM] | GI50 (DU-145 prostate) [µM] | GI50 (SW-620 colon) [µM] | GI50 (BT-549 breast) [µM] | GI50 (ACHN renal) [µM] | GI50 (SF-295 CNS) [µM]
1 | N#Cc1cccc(N2C(=O)C3C4C=CC(C3C2=O)C2C(=O)N(c3cccc(C#N)c3)C(=O)C42)c1 (stereo not drawn) | 53.7 µM | 50 µM | > 56.2 µM | > 56.2 µM | > 100 µM | > 100 µM | > 100 µM | 72.1 µM | 55.2 µM | 36.7 µM |  |  |  |  |  |  |  |  |  | 
2 | CS(=O)(=O)N(c1cc(-c2ccc3ncnc(Nc4ccc(F)c(Cl)c4)c3c2)cnc1Cl)S(C)(=O)=O | > 100 µM | 3.73 µM | 9.81 µM | 3.98 µM | 3.58 µM | 24.9 µM | > 38.4 µM | 5.06 µM | 12.4 µM | 4.92 µM | 0.527 | 0.44 | 2.43 | 0.826 | 0.246 | 1.18 | 1.71 | 0.638 | 1.11 | 1.25
3 | COC(C)C(O)(C(=O)OCC1=CCN2CCC(O)C12)C(C)(C)O (stereo not drawn) | > 100 µM | > 100 µM | > 100 µM | > 100 µM | > 100 µM | > 100 µM | > 100 µM | > 100 µM | > 100 µM | > 100 µM |  |  |  |  |  |  |  |  |  | 
4 | CC/C(=C/c1ccc(OC)cc1OC)[N+](=O)[O-] | 7.01 µM | 6.5 µM | 6.75 µM | 7.19 µM | 3.92 µM | 13.8 µM | 4.93 µM | 15.3 µM | 4.63 µM | 21.7 µM | 2.05 | 2.62 | 2.41 | 2.31 | 0.852 | 3.61 | 2.28 | 4.15 | 2.14 | 9.88
5 | CN(N)c1nc(N)c(C#N)c(C#N)c1C#N | > 10 µM | > 10 µM | > 10 µM | > 10 µM | > 10 µM | > 10 µM | > 10 µM | > 10 µM | > 10 µM | > 10 µM |  |  |  |  |  |  |  |  |  | 
6 | O=C1NC(c2ccccc2)C2(C(=O)O)CN(C3CC3)c3cc(N4CCNCC4)c(F)cc3C2N1 (stereo not drawn) | > 100 µM | > 100 µM | > 100 µM | > 100 µM | > 100 µM | > 100 µM | > 100 µM | > 100 µM | > 100 µM | > 100 µM | > 100 | > 100 | > 100 | > 100 | > 100 | > 100 | > 100 | > 100 | > 100 | > 100
7 | Cc1cccc2c1[nH]c(=O)c1c3ccccc3cn21 | 12.6 µM | 86.2 µM | 22.8 µM | 7.15 µM | 12.5 µM | 17.6 µM | 17.8 µM | 59.2 µM | 22.5 µM | 25.1 µM | 1.2 | 26.8 | 3.38 | 2 |  | 5.26 | 5.76 | 12 | 4.08 | 2.64
8 | CN(C)CCCNc1nc2ccccc2c2[nH]c3ccccc3c12 | 1.38 µM | 4.04 µM | 2.28 µM | 1.95 µM | 1.81 µM | 4.36 µM | 7.21 µM | 5.35 µM | 2.24 µM | 3.11 µM | 0.206 | 1.45 | 0.721 | 0.811 | 0.417 | 0.72 | 0.387 | 1.86 | 0.703 | 0.972
9 | CCC1=C(CC2NCCc3ccccc32)CC2c3cc(OC)c(OC)cc3CCN2C1 (stereo not drawn) | 18.6 µM and 4.53 µM | 30.4 µM and 3.83 µM | 12.2 µM and 4.81 µM | 15.9 µM and 3.12 µM | 10.6 µM and 2.3 µM | 12.7 µM and 2.59 µM | 13.4 µM and 6.81 µM | 21.2 µM and 9.89 µM | 37.6 µM and 3.9 µM | 15 µM and 6.82 µM | 3.81 | 6.08 | 3.32 | 4.17 | 2.95 | 3.24 | 3.62 | 9.07 | 3.96 | 3.73
10 | COc1ccc(S(=O)(=O)N(C(C)=O)c2ccccc2/C=C/c2cc[n+]([O-])cc2)cc1 | > 7.66 µM | > 10 µM | > 10 µM | > 10 µM | > 10 µM | > 10 µM | > 10 µM | > 10 µM | > 10 µM | > 10 µM | 0.762 |  | 0.335 | 0.953 | 0.428 | 0.813 | 0.559 | 0.56 | 2.36 | 0.385
11 | C=C1CCC2C3(C)COC(c4ccccc4Cl)OC3CCC2(C)C1/C=C/C1=CCOC1=O (stereo not drawn) | > 100 µM | > 100 µM | > 100 µM | 9.97 µM | > 100 µM | > 100 µM | > 100 µM | 72.9 µM | > 100 µM | > 100 µM | 5.33 | 19 | 6.71 | 1.16 | 4.38 | > 100 | 25 | 3.55 | 38.7 | 3.48
12 | NC(Cc1ccccc1)c1nccs1 (stereo not drawn) | > 100 µM | > 100 µM | > 100 µM | > 100 µM | > 100 µM | > 100 µM | > 100 µM | > 100 µM | > 100 µM | > 100 µM |  |  |  |  |  |  |  |  |  | 
13 | CN1CCN(CCCOc2cc(O)c3c(=O)cc(-c4ccccc4)oc3c2)CC1 | 56.7 µM | 48.3 µM | 54.7 µM | 55.2 µM | 30 µM | 73.7 µM | 42.4 µM | 46 µM | 29.4 µM | 44.5 µM | 23.6 | 20.5 | 22 | 21.3 | 15.3 | 25.3 | 19.5 | 21.1 | 16 | 21.1
14 | CCn1c2ccccc2c2cc(C(=O)c3ccc(C)c4ccccc34)ccc21 | > 100 µM | > 100 µM | 14.9 µM | > 100 µM | > 100 µM | > 100 µM | > 100 µM | 5.34 µM | > 100 µM | 0.936 µM | 0.359 | 0.658 | 0.362 | 0.389 | 0.311 | 0.435 | 0.352 | 0.574 | 0.729 | 0.273
